Assay [1] deals with Nicotinic acetylcholine receptor alpha6/alpha3/beta4 (Rattus norvegicus) (UniProt P04757+P12392+P43143). The assay is described as follows: Potency index, ratio of [T5A,P60]BuIA to test compound for rat alpha6/alpha3beta4 nAChR expressed in Xenopus Oocytes assessed as fold increase in presence of acetylcholine by Voltage-clamp recording. It counts as cell-based. As to conditions: Oocyte.

Assay [2] deals with Neuronal acetylcholine receptor; alpha3/beta4 (Rattus norvegicus) (UniProt P04757+P12392). Put plainly: Potency index, ratio of [T5A,P60]BuIA to test compound for rat alpha3beta4 nAChR expressed in Xenopus oocytes assessed as fold decrease in presence of acetylcholine by Voltage-clamp recording. It counts as cell-based. The settings on record: Oocyte.

Peptide text beside a SMILES is read from it.

As to `CC(C)[C@H](NC(=O)[C@@H]1CCCN1C(=O)[C@H](CC(N)=O)NC(=O)[C@H](C)NC(=O)[C@H](CS)NC(=O)[C@H](CS)NC(=O)[C@@H](N)CCCNC(=N)N)C(=O)N[C@@H](CS)C(=O)N[C@@H](CC(N)=O)C(=O)NCC(=O)N[C@@H](CCCCN)C(=O)N[C@@H](Cc1cnc[nH]1)C(=O)N[C@@H](CS)C(N)=O` (H-RCCANPVCNGKHC-NH2), the fold change (FC) in assay [1] turned out to be 3; in assay [2], 10.
